In paper PMC10226132, “First-in-Class Selective Inhibitors of the Lysine Acetyltransferase KAT8” (Journal of Medicinal Chemistry, 2023):
Where two headings read alike, the source gives them in different places.

What was measured:
U937 cells [1] = system: U937 cells; design: method as in PMID 28202522; conditions: cited from earlier work
KAT8 = biological target: T1, KAT8 (Homo sapiens, UniProt Q9H7Z6); test: Radioactive KAT8 inhibition assay; format: biochemical
T1 construct: using the previously purified KAT8 (173–458, 5 nM); 6xHis tag with TEV protease cleavage site (N, cleaved yes); made in house; host or cells: E. coli BL21(DE3)
T1 sequence (Q9H7Z6 173-458): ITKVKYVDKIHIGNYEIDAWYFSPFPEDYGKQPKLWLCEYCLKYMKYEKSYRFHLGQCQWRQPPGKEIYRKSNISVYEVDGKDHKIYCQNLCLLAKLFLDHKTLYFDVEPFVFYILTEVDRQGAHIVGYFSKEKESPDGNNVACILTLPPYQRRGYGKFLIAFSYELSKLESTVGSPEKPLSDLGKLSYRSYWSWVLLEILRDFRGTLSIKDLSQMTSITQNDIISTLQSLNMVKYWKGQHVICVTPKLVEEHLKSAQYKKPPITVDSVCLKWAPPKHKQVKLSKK
Procedure: Purified KAT8 was incubated with the relevant inhibitor (1% DMSO final) in a 2-fold serial dilution starting at 200 μM for 20 min at rt. Then, [^3H]Ac-CoA and biotinylated peptide were added to a total assay volume of 50 μL and the reaction mixture was incubated at rt for 4 h. The reaction was stopped, and the mixture was transferred to a 96-well streptavidin scintillant coated FlashPlate (Perkin Elmer) and incubated for 60 min at rt. The FlashPlate was washed with 0.1% Tween-20, and the liquid scintillation counting (MicroBeta Microplate Counter, Perkin Elmer) was employed to measure the radioactive signal. Experiments were performed in biological triplicates. Signal reduction compared to control was plotted (as inhibition percentage) as a function of compound concentration and fitted by nonlinear regression (GraphPad Prism 8.0) finally yielding the IC50 values.

KAT3B = biological target: T2, KAT3B (Homo sapiens, UniProt Q09472); test: HotSpot KAT assay, KAT3B; format: biochemical; conditions: read-out: IC50 KAT3B (1 nM); enzyme 1 nM; NI = no inhibition at 200 μM; mean ± SD of three independent experiments
T2 construct: KAT3B (aa 1284–1672, 1 nM); purchased Reaction Biology Corporation
T2 sequence (Q09472 1284-1672): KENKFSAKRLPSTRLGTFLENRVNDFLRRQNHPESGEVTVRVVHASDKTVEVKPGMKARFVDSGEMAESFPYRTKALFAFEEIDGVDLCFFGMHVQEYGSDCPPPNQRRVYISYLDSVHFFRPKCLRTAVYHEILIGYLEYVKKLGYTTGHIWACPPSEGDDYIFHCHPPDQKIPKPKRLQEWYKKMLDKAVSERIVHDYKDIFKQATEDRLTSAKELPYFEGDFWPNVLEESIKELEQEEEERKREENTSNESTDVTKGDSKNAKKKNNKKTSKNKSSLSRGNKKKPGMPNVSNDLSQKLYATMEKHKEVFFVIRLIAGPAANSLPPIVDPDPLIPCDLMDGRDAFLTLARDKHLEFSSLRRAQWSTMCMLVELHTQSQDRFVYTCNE
Procedure: The effects of the compounds on other KATs were determined using the HotSpot KAT assay (Reaction Biology Corporation, Malvern, PA, USA) according to the supplier’s procedure. […] Histone peptide acetylation was assessed by liquid scintillation counting using a Tri-Carb 2800TR Liquid Scintillation Analyzer (Perkin Elmer). Experiments were performed in biological triplicates. Signal reduction compared to control was plotted (as inhibition percentage) as a function of compound concentration. In cases in which an IC50 was calculated, the values were fitted by nonlinear regression (GraphPad Prism 8.0).

KAT2B = biological target: T3, KAT2B (Homo sapiens, UniProt Q92831); test: HotSpot KAT assay, KAT2B; format: biochemical; conditions: enzyme 25 nM; NI = no inhibition at 200 μM; mean ± SD of three independent experiments
T3 construct: KAT2B (aa 492–658, 25 nM); purchased Reaction Biology Corporation
Procedure: (§1) The effects of the compounds on other KATs were determined using the HotSpot KAT assay (Reaction Biology Corporation, Malvern, PA, USA) according to the supplier’s procedure. The recombinant catalytic domains of human KAT2A (aa 323–837, 15 nM), KAT2B (aa 492–658, 25 nM), KAT3B (aa 1284–1672, 1 nM), KAT6A (aa 488–778, 10 nM), KAT6B (aa 657–1069, 10 nM), and full length human KAT5 (25 nM) and KAT7 (25 nM) were used. Each enzyme was incubated with the relevant histone peptide [H3 peptide for KAT2A, KAT2B, KAT3B, KAT6A, and KAT7 (2.5–5 μM, depending on the KAT isoform); H2A peptide for KAT5 (1.25 μM); H4 peptide for KAT6B (2.5 μM)] as a substrate and radio-isotope-labeled [^3H]Acetyl-CoA (0.2–1.5 μM, depending on the KAT isoform) as an acetyl donor in the assay buffer [50 mM Tris–HCl (pH 8.0), 50 mM NaCl, 0.1 mM EDTA, 1 mM DTT, 0.1 mM PMSF, 1% DMSO] for 1 h at 30 °C in the presence or absence of various compounds (1% DMSO final) titrated in a 2-fold serial dilution starting at 200 μM. Histone peptide acetylation was assessed by liquid scintillation counting using a Tri-Carb 2800TR Liquid Scintillation Analyzer (Perkin Elmer). Experiments were performed in biological triplicates. Signal reduction compared to control was plotted (as inhibition percentage) as a function of compound concentration. In cases in which an IC50 was calculated, the values were fitted by nonlinear regression (GraphPad Prism 8.0).

KAT2A = biological target: T4, KAT2A (Homo sapiens, UniProt Q92830); test: HotSpot KAT assay, KAT2A; format: biochemical; conditions: control compound; read-out: IC50 KAT2A (15 nM)
T4 construct: human KAT2A (aa 323–837, 15 nM); purchased Reaction Biology Corporation
Procedure: as §1

H1299 cells = test: MTT cell proliferation assay, H1299; format: cell-based, human; conditions: 72 h treatment, MTT
Excerpt: (§2) Human commercially available AML U937, breast cancer MCF7, lung adenocarcinoma NCI-H460, H1299 and A-549, glioblastoma U251, B lymphocyte AHH1 cell lines were maintained in compete 10% foetal bovine serum (FBS,) RPMI 1640 (Euroclone, Milan, IT) medium. Human commercially available colon cancer HCT116 and HT29 lines and cervix adenocarcinoma HeLa cells were maintained in compete 10% FBS Dulbecco’s Modified Eagle Medium (DMEM) high glucose medium (Euroclone). L-Glutamine, FBS, and penicillin streptomycin mixture added to medium were obtained from Euroclone. All cell lines were cultured at 37 °C in a humidified atmosphere of 5% CO2:95% air and were tested for mycoplasma contamination routinely by RT-PCR.
(§3) For analysis of cell proliferation, cells were plated in sextuplicate on 96-well plates in complete media. After 24 h, cells were exposed to different drugs for 72 h. The inhibitory effect of different drugs was assessed by MTT (Sigma, St. Louis, MO, USA) colorimetric assays as previously reported.[67] Aqueous DMSO (0.5% v/v) was used as a control (untreated). The results are reported as “viability of drug-treated cells/viability of untreated cells” × 100 and represent the average ±SD of three independent experiments. IC50 values were using fitted by nonlinear regression using GraphPad Prism 8.0.

A549 cells = test: MTT cell proliferation assay, A549; format: cell-based, human; conditions: 72 h treatment, MTT
Excerpt: as §2, §3

AHH-1 cells = test: Proliferation of noncancer B lymphocyte AHH-1 cells; format: cell-based, human; conditions: 72 h
Excerpt: as §2, §3

HCT116 cells = test: MTT cell proliferation assay, HCT116; format: cell-based, human; conditions: 72 h treatment, MTT
Excerpt: as §2, §3

U937 cells [2] = test: MTT cell proliferation assay, U937; format: cell-based, human; conditions: 72 h treatment, MTT
Excerpt: as §2, §3

[3] = system: human intestinal epithelial cells (InEpC); test: Proliferation of human intestinal epithelial cells (InEpC); format: cell-based; conditions: 25, 50, 100, 200 μM, 72 h
Procedure: as §3

[4] = system: normal human lung fibroblasts (NHLF); test: Proliferation of normal human lung fibroblasts (NHLF); format: cell-based; conditions: 25, 50, 100, 200 μM, 72 h
Procedure: as §3

[5] = read-out: IC50 KAT8 (5 nM), enzyme 5 nM, 2-fold serial dilution from 200 μM, NI = no inhibition at 200 μM, mean ± SD of three independent experiments

T3 sequence (Q92831 492-658): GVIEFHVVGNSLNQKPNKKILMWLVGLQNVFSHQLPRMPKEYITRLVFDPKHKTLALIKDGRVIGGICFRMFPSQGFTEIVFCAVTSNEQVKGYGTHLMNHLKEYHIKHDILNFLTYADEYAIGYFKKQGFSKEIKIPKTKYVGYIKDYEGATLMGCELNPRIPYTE
T4 sequence (Q92830 323-837): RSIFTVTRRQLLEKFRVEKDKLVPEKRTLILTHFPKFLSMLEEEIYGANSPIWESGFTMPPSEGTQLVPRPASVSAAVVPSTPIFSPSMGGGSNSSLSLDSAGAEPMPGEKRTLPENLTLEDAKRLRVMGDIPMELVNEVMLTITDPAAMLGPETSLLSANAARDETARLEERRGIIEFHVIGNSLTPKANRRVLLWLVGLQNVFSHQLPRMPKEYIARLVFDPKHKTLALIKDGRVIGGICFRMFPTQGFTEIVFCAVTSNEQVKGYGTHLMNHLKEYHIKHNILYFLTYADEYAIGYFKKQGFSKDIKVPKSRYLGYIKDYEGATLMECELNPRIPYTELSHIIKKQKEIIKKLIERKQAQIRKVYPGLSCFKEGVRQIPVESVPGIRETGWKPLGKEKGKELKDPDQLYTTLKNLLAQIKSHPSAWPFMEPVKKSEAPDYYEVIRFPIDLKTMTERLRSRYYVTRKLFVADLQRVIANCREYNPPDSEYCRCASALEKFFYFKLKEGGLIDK

Row | Compound | IC50 (KAT8; [5]) [µM] | IC50 (KAT3B) [µM] | IC50 (KAT2B) [µM] | also measured
1 | O=C(O)c1ccc(N2N=C(Cc3ccccc3)/C(=C/c3ccc[nH]3)C2=O)cc1 [Compound 35, (Z)-4-(4-((1H-Pyrrol-2-yl)methylene)-3-benzyl-5-oxo-4,5-dihydro-1H-pyrazol-1-yl)benzoic Acid] | – | > 200 | > 200 | IC50 (KAT8): 38.1 ± 3.8 µM
2 | CC1=NN(c2ccc(C(=O)NCc3ccccc3)cc2)C(=O)/C1=C\c1ccc[nH]1 [Compound 39, (Z)-4-(4-((1H-Pyrrol-2-yl)methylene)-3-methyl-5-oxo-4,5-dihydro-1H-pyrazol-1-yl)-N-benzylbenzamide] | > 200 | > 200 | > 200 | IC50 H1299, 72 h (H1299 cells): No inhibition at 100 µM; IC50 A549, 72 h (A549 cells): No inhibition at 100 µM; effect on proliferation of AHH-1 cells (AHH-1 cells; 25, 50, 100, 200 μM): did not significantly affect the proliferation; IC50 (AHH-1 cells; Homo sapiens, AHH-1, NI = no inhibition at 200 µM): > 200 µM; IC50 HCT116, 72 h (HCT116 cells): No inhibition at 100 µM; IC50 U937, 72 h (U937 cells [2]): No inhibition at 100 µM; effect on proliferation of InEpC [3]: did not significantly affect the proliferation; effect on proliferation of NHLF [4]: did not significantly affect the proliferation
3 | CC1=NN(c2ccc(C(=O)O)cc2)C(=O)/C1=C(/C)c1ccc[nH]1 [Compound 30, (Z)-4-(4-(1-(1H-Pyrrol-2-yl)ethylidene)-3-methyl-5-oxo-4,5-dihydro-1H-pyrazol-1-yl)benzoic Acid] | 19.4 ± 0.9 | > 200 | > 200 | –
4 | CC1=NN(c2ccc(C(=O)N(C)C)cc2)C(=O)/C1=C\c1ccc[nH]1 [Compound 38, (Z)-4-(4-((1H-Pyrrol-2-yl)methylene)-3-methyl-5-oxo-4,5-dihydro-1H-pyrazol-1-yl)-N,N-dimethylbenzamide] | 29.5 ± 1.8 | > 200 | > 200 | –
5 | CC(C)C1=NN(c2ccc(C(=O)O)cc2)C(=O)/C1=C\c1ccc[nH]1 [Compound 33, (Z)-4-(4-((1H-Pyrrol-2-yl)methylene)-3-isopropyl-5-oxo-4,5-dihydro-1H-pyrazol-1-yl)benzoic Acid] | 13.9 ± 0.9 | > 200 | > 200 | –

The next lines start with results.

Row | IC50 (KAT8; [5]) [µM] | IC50 (KAT3B) [µM] | IC50 (KAT2B) [µM] | Compound | also measured
6 | 20.3 ± 1.3 | 22.3 ± 1.1 | > 200 | CCCCCCCc1ccc(CCc2cccc(O)c2C(=O)O)cc1 [III (MG149), reference compound] | antiproliferative activity in U937 and other AML cell lines (U937 cells [1]): exerted antiproliferative activity
7 | – | 22.9 ± 1.3 | 39.7 ± 1.1 | CCCCCCCCCCCCCCCc1cccc(O)c1C(=O)O [I (AA), anacardic acid, reference compound] | IC50 (KAT2A): 42.1 µM
8 | 17.2 ± 1.2 | > 200 | > 200 | Cc1nn(-c2ccc(C(=O)O)cc2)c(O)c1Cc1ccc[nH]1 [Compound 31, 4-(4-((1H-Pyrrol-2-yl)methyl)-5-hydroxy-3-methyl-1H-pyrazol-1-yl)benzoic Acid] | –
9 | 15.1 ± 1 | 20.8 ± 1 | > 200 | CC1=NN(c2ccc(C(=O)O)cc2)C(=O)/C1=C\c1cccn1C [Compound 28, (Z)-4-(3-Methyl-4-((1-methyl-1H-pyrrol-2-yl)methylene)-5-oxo-4,5-dihydro-1H-pyrazol-1-yl)benzoic Acid] | –
